Reference: patent publication US6818226B2, “Dermal penetration enhancers and drug delivery systems involving same” (ACRUX DDS Pty. Ltd., priority 1996, dated 2004)
Read-outs that look alike come from different tables or passages of the source. Marks after values point to notes of the source that are not given here.

Legend:
[1] = Flux of oestradiol, progesterone, norethisterone acetate, ibuprofen, flurbiprofen across shed snake skin, 5 microL/cm^2 (Example 11); type: in vitro ADME; conditions: Children's python
[2] = hairless, mouse, 2 % v/v
[3] = Flux of oestradiol, progesterone, norethisterone acetate, ibuprofen, flurbiprofen across shed snake skin, 5 microL/cm^2 (Example 11); type: in vitro ADME, Children's python; conditions: for Enhancement ratio: 24 h
Text: (§1) Dermatol., 94; 235-240, 1990.
(§2) Degassing was repeated three times.
In order to further illustrate the present invention and the advantages thereof, the following specific examples are given, it being understood that same are intended only as illustrative and in nowise limitative. In the examples, the effectiveness of the dermal penetration enhancers are illustrated by measuring the skin penetration of physiologically active agents. Also, the skin penetration of the dermal penetration enhancers of this invention were compared with that of other penetration enhancers as well as formulations of bio-affecting agents with common adjuvants. The comparisons made generally consisted of measuring the relative penetration through shed snake skin of the various formulations. In the examples, the in vitro skin penetration studies were performed using the same in vitro diffusion cell apparatus as previously mentioned.
The two penetration enhancers given as examples are octyl dimethyl PABA and Azone. Both penetration enhancers were again at a concentration of 8% v/v within the formulations and control was without a penetration enhancer. A concentration of 2% w/v oestradiol was used in the formulation and detection wavelength was 212 nm and the mobile phase consisted of acetonitrile:water (40%:60%).

[4] = tested on: full-thickness guinea pig skin in vivo; assay: Melanin content of guinea pig skin in vivo after topical hydroquinone solution (Example 4); conditions: for Enhancement ratio (enhancer/control): melanin content
Protocol: Melanin content was measured by reflectance absorbance from the treated and untreated skin according to the methods outlined in the PhD thesis of Anderson, J. R., titled The Development of Techniques for Measuring the Bioavailability of Topical Depigmenting Agents (School of Pharmaceutics, Victorian College of Pharmacy Ltd., Parkville, Victoria, Australia, Dec., 1985).

[5] = Children's python, 24 h, 2 % v/v
[6] = type: in vitro ADME, Children's python
Text: as §1, §2
The control formulation contained no penetration enhancer. The detection wavelength was 242 nm and the mobile phase consisted of acetonitrile:water (35%:65%).

[7] = Hydroquinone penetration across full-thickness guinea pig skin in vitro from gel, Franz cells (Example 4)
Text: Adult guinea pigs of either sex (weight range 500 g-750 g) were used. The hair on the back flank and back was removed with the aid of depilatory wax (Arielle™) under halothane anaesthesia. Seven days later, after the stratum corneum had completely regenerated, the guinea pigs were killed and the skin removed and placed on a chilled slab. […] For in vivo experiments the guinea pigs were housed in individual cages and the topical hydroquinone formulations were applied to the hair-free areas. Each guinea pig received the test or control formulation on the corresponding contralateral site, thus allowing each animal to act as its own control.
Radiolabelled hydroquinone (C14, Amersham) was added to each of the topical formulations. At specified time intervals 200 microL of receptor solution was withdrawn with a micro-pipette and replaced with 200 microL of fresh normal saline. The 200 microL samples were added to 800 microL of water which in turn was added to 10 mL of scintillation cocktail consisting of Toluene™ 1L, PPO 5g, POPOP 0.1 g and Triton X™ 500 mL. The scintillation counting was performed on a Packard Tricarb 460C instrument. Disintegrations per minute were determined by an external standard procedure and calculated by the data system of the instrument.

[8] = Diffusion of indomethacin (Indospray) across snake skin after pretreatment with Octyl dimethyl PABA (Example 2); type: in vitro ADME; conditions: Children's python, 24 h
Protocol: as §1, §2
10 microL of increasing concentrations of Octyl dimethyl PABA in absolute ethanol were applied 30 mins prior to the application of the indomethacin formulation. The control experiment involved application of 10 microL of absolute ethanol alone 30 mins prior to the application of the indomethacin formulation. Samples were assayed according to the method described previously.

[9] = Ketoprofen flux from transdermal patch across snake skin (Example 9); type: in vitro ADME, Children's python; conditions: control transdermal patch without enhancer, over 24 h
Protocol: as §1, §2
The patches were prepared by dissolving 300 mg of ketoprofen, 400 mg of penetration enhancer, 300 mg of polyethylene glycol 400 and 800 mg of hydroxypropylcellulose in 20 mL of ethanol and stirring until viscous. This was then poured onto a clean glass plate and dried at 40 degrees Celsius for 1 h. The thickness of this film was approximately 1 mm. Circles of 0.8 cm^2 were then cut out of this matrix and stuck onto the middle of 2.0 cm^2 circles of OPSITE™ adhesive bandage. This patch was then stuck onto 2.0 cm^2 pieces of snake skin and placed in the diffusion cell. The ketoprofen content of each patch formulation was determined by HPLC in triplicate and found to be 6.99+/−0.30 mg/cm^2 and 6.76+/−0.24 mg/cm^2, for the control and octyl salicylate patches respectively (mean content+/−std error, […]).

[10] = Diffusion of ketoprofen across snake skin, enhancer included in the formulation (Example 3); conditions: control, no enhancer; 2% w/v ketoprofen in 70% aqueous ethanol; 24 h
[11] = Diffusion of ketoprofen across shed snake skin after pretreatment with enhancer (Example 1); conditions: control, no enhancer: 70% aqueous ethanol alone for 2 hours before 2% ketoprofen; 24 h
[12] = type: physicochemical
Text: Japanese patent JP 61-268631 to Showa Denko KK discloses dermal penetration enhancers suitable for use with water-soluble drugs. The dermal penetration enhancers disclosed include 1-5 carbon fatty acid esters of para-aminobenzoic acid but their chemical structures are quite distinct from the compounds used in the present invention, and the physicochemical properties of the 1-5 carbon fatty acid esters of para-aminobenzoic acid are markedly different to those of the present invention. For example the octanol-water partition coefficients for all the 1-5 carbon fatty acid esters of para-aminobenzoic acid are at least 200 fold lower than those of the present invention. Also the preferred dermal penetration enhancer disclosed in JP 61-268631 is the 2 carbon fatty acid ester of para-aminobenzoic acid (or Benzocaine) which has an octanol-water partition coefficient which is more than 8000 fold lower than those of the present invention. Unlike those of the present invention, the preferred dermal penetration enhancer disclosed in JP 61-268631 has significant pharmacological properties in that it is a local anaesthetic, which has also been reported to cause irritant and allergic skin reactions. […]

[13] = in vivo, Bartek et al. 1972; cited from earlier work
[14] = Testosterone clearance after intravenous bolus in pigs (Example 13); type: in vivo, domestic weanling pig; conditions: pig, plasma, bolus dose of intravenous testosterone
[15] = Testosterone flux across shed snake skin, finite dose 5 microL/cm^2 (Example 10); conditions: control, no enhancer, 12% w/v testosterone in absolute ethanol
Protocol: as §1, §2
The volume of each formulation applied to the skin was 5 microL/cm^2. Each formulation contained 12% w/v testosterone in absolute ethanol. The dose was applied with a GC syringe.
Samples were assayed for testosterone by HPLC as shown before in Example 6.

[16] = Testosterone penetration across dermatomed neonate porcine skin in vitro (Example 6); type: in vitro ADME; conditions: control, no enhancer; 12% w/v testosterone in absolute ethanol
Text: as §2

[17] = Ibuprofen penetration across full-thickness hairless mouse skin in vitro (Example 5); conditions: control, no enhancer; 2% w/v ibuprofen in 70% aqueous ethanol
[18] = Children's python, 24 h, 8 % v/v

SMILES: CC(=O)[C@H]1CC[C@H]2[C@@H]3CCC4=CC(=O)CC[C@]4(C)[C@H]3CC[C@]12C [Progesterone, progesterone]
- Mean flux +/− std error of progesterone ([1]; 24 h, 6 % w/v): 0.40 +/− 0.02 microg/cm^2 · h

SMILES: CC(C(=O)O)c1ccc(-c2ccccc2)c(F)c1 (centres unmarked) [Flurbiprofen, flurbiprofen]
- Mean flux +/− std error of flurbiprofen ([1]; 20 %): 0.81 +/− 0.05 microg/cm^2 · h

SMILES: CCCCCCCCCCCCN1CCCCCC1=O [Azone, 1-dodecal-azacycloheptane-2-one]
- median amount of ibuprofen penetrated after 12 hours [2]: 1036* μg/cm^2
- median amount of ibuprofen penetrated after 24 hours [2]: 2684* μg/cm^2
- Mean flux +/− std error of oestradiol ([3]; Children's python, 8 % v/v): 0.40 +/− 0.05 microg/cm^2 · h
- Enhancement ratio ([3]; Children's python, 8 % v/v): 5.4
- Melanin content ([4]; HQ 2% w/v with enhancer 2% v/v, finite dose solution 5 microL/cm^2): 39.5 ± 9.6 μg/cm^2
- Enhancement ratio (enhancer/control) ([4]; HQ 2% w/v with enhancer 2% v/v versus HQ 2% w/v control): 0.93
- Mean flux +/− std error of flurbiprofen ([1]; 8 % v/v): 2.05 +/− 0.42 microg/cm^2 · h
- Mean flux +/− std error of ibuprofen ([1]; 8 % v/v): 13.53 +/− 1.38 microg/cm^2 · h
- Mean flux +/− std error of norethisterone acetate ([1]; 8 % v/v): 0.16 +/− 0.02 microg/cm^2 · h
- Mean flux +/− std error of progesterone ([1]; 24 h, 8 % v/v): 2.17 +/− 0.33 microg/cm^2 · h
- Enhancement ratio [5]: 3.6

SMILES: C[C@]12CCC(=O)C=C1CC[C@@H]1[C@@H]2[C@@H](O)C[C@@]2(C)[C@H]1CC[C@]2(O)C(=O)CO [hydrocortisone]
- Mean flux +/− std error of hydrocortisone ([6]; control, no enhancer, 1% w/v hydrocortisone in 70% aqueous ethanol): 0.14 +/− 0.04 microg/cm^2.h

SMILES: CCCCC(CC)COC(=O)c1ccc(N(C)C)cc1 (centres unmarked) [Octyl dimethyl PABA, Octyl dimethyl-para-aminobenzoate]
- median amount of ibuprofen penetrated after 12 hours [2]: 1123* μg/cm^2
- median amount of ibuprofen penetrated after 24 hours [2]: 2981* μg/cm^2
- Mean flux +/− std error of oestradiol ([3]; Children's python, 8 % v/v): 0.26 +/− 0.01 microg/cm^2 · h
- Enhancement ratio ([3]; Children's python, 8 % v/v): 2.4
- Enhancement ratio [6, 18]: 5.8
- Mean flux +/− std error of hydrocortisone [6, 18]: 0.79 +/− 0.06 microg/cm^2.h
- Enhancement ratio (enhancer/control) ([7]; both, guinea pig, 3 % v/v): 2.9
- Melanin content ([4]; HQ 1% w/v with enhancer 2% v/v, finite dose solution 5 microL/cm^2): 38.2 ± 3.1 μg/cm^2
- Enhancement ratio (enhancer/control) ([4]; HQ 1% w/v with enhancer 2% v/v versus HQ 1% w/v control): 1.5
- Mean flux +/− std error of flurbiprofen ([1]; 8 % v/v): 2.91 +/− 0.30 microg/cm^2 · h
- Mean flux +/− std error of ibuprofen ([1]; 8 % v/v): 13.16 +/− 1.21 microg/cm^2 · h
- Mean flux +/− std error of norethisterone acetate ([1]; 8 % v/v): 1.85 +/− 0.07 microg/cm^2 · h
- Mean flux +/− std error of progesterone ([1]; 24 h, 8 % v/v): 0.95 +/− 0.03 microg/cm^2 · h
- Enhancement ratio ([8]; 1.6 % v/v): 1.2
- Mean flux +/− std error of indomethacin ([8]; 1.6 % v/v): 1.43 +/− 0.14 microg.cm^2.h
- Enhancement ratio ([8]; 3.2 % v/v): 1.4
- Mean flux +/− std error of indomethacin ([8]; 3.2 % v/v): 1.71 +/− 0.32 microg.cm^2.h
- Enhancement ratio ([8]; 6.4 % v/v): 1.6
- Mean flux +/− std error of indomethacin ([8]; 6.4 % v/v): 1.94 +/− 0.09 microg.cm^2.h
- Enhancement ratio [5]: 3.5

SMILES: CCCCC(CC)COC(=O)C=Cc1ccc(OC)cc1 (centres unmarked) [PARSOL ® MCX]
- Flux of hydroquinone ([7]; HQ gel 15 mg/cm^2 with enhancer (PARSOL MCX 3% v/v, ESCALOL 507 3% v/v, AZONE 5% v/v as in row)): 0.93 ± 0.19 % dose/h
- Enhancement ratio (enhancer/control) ([7]; hydroquinone flux from gel, guinea pig skin in vitro): 2.7

SMILES: CC(C(=O)O)c1cccc(C(=O)c2ccccc2)c1 (centres unmarked) [ketoprofen]
- Mean flux +/− std error of ketoprofen [9]: 0.47 ± 0.04 microg/cm^2.h
- Mean flux +/− std error of ketoprofen [10]: 0.78 ± 0.07 microg/cm^2.h
- Mean flux +/− std error of ketoprofen [11]: 0.96 ± 0.18 microg/cm^2.h

SMILES: CCOC(=O)c1ccc(N)cc1 [Benzocaine, 2 carbon fatty acid ester of para-aminobenzoic acid]
- octanol-water partition coefficient, fold lower than those of the present invention [12]: more than 8000 fold

SMILES: C[C@]12CC[C@@H]3c4ccc(O)cc4CC[C@H]3[C@@H]1CC[C@@H]2O [Oestradiol, oestradiol]
- Mean flux +/− std error of oestradiol ([3]; control without penetration enhancer, 2% w/v oestradiol): 0.06 +/− 0.01 microg/cm^2 · h

SMILES: C[C@]12CC[C@H]3[C@@H](CCC4=CC(=O)CC[C@@]43C)[C@@H]1CC[C@@H]2O [testosterone]
- permeability in human skin compared with pig skin, fold lower [13]: 2.2 fold
- clearance [14]: 11.1 mL/min/kg
- Mean flux +/− std error of testosterone [15]: 0.70 +/− 0.03 microg/cm^2.h
- mean amount of testosterone penetrated after 4 hours [16]: 4 ± 1 μg/cm^2
- mean amount of testosterone penetrated after 24 hours [16]: 13 ± 2 μg/cm^2

SMILES: CC(C)Cc1ccc(C(C)C(=O)O)cc1 (centres unmarked) [Ibuprofen, ibuprofen]
- Mean flux +/− std error of ibuprofen ([1]; 20 %): 5.39 +/− 0.50 microg/cm^2 · h
- median amount of ibuprofen penetrated after 12 hours [17]: 474 μg/cm^2
- median amount of ibuprofen penetrated after 24 hours [17]: 1819 μg/cm^2

SMILES: Oc1ccc(O)cc1 [HQ, hydroquinone]
- Flux of hydroquinone ([7]; control gel, no enhancer, 15 mg/cm^2): 0.35 ± 0.10 % dose/h
- Melanin content ([4]; HQ 1% w/v control, no enhancer, 5 microL/cm^2): 57.5 ± 3.7 μg/cm^2
- Melanin content ([4]; HQ 2% w/v control, no enhancer, 5 microL/cm^2): 36.8 ± 8.1 μg/cm^2

SMILES: C#C[C@]1(OC(C)=O)CC[C@H]2[C@@H]3CCC4=CC(=O)CC[C@@H]4[C@H]3CC[C@@]21C [Norethisterone acetate, norethisterone acetate]
- Mean flux +/− std error of norethisterone acetate ([1]; 24 h, 6 % w/v): 0.14 +/− 0.02 microg/cm^2 · h
